Experimental data taken from US6355692B2, “Method of inhibiting formation of infectious microorganisms” (Northeastern Ohio Universities College of Medicine, priority 1998, dated 2002).
≈ marks a conversion by molar mass, not a printed value.

Tests used:
pseudorabies virus = experiment: microbe, parasite or virus in culture; format: cell-based
Neisseria gonorrhea = experiment: Growth inhibition on chocolate agar containing resveratrol; format: cell-based
Description: Stock solutions of the resveratrol, obtained from Sigma Chemical Co, St. Louis, Mo. were prepared in 100% ethanol. Different quantities of the stock solution where added to melted chocolate agar which was then poured into a petri dish and allowed to solidify. […] The final concentration of ethanol in the agar was 0.5%. Control plates containing chocolate agar and ethanol at a final concentration of 0.5% were also prepared. Neisseria gonorrhea was obtained from patients diagnosed with gonorrhea. The authenticity of the bacterium was confirmed utilizing standard microbiological techniques of identification. Cultures of the bacterial isolate were inoculated onto fresh plates and then 24 hours later, a suspension was made from isolated colonies. […] Thereafter, the samples were incubated at 37° C. with or without 5% CO2. All samples were visually examined for growth of the bacterium 24 hours later to determine the concentration of resveratol that inhibits growth by 50% (MIC50) as well as the concentration which inhibits any visible growth (MIC100)

Neisseria meningitidis = experiment: as above; format: cell-based
Description: Stock solutions of the resveratrol, obtained from Sigma Chemical Co, St. Louis, Mo. were prepared in 100% ethanol. Different quantities of the stock solution where added to melted chocolate agar which was then poured into a petri dish and allowed to solidify. […] The final concentration of ethanol in the agar was 0.5%. Control plates containing chocolate agar and ethanol at a final concentration of 0.5% were also prepared. A culture of Neisseria […] obtained from the American Type Culture Collection. Authenticity of the bacterium was confirmed utilizing standard microbiological techniques of identification. Cultures of the bacterial isolate were inoculated onto fresh plates and then 24 hours later, a suspension was made from isolated colonies. […] Thereafter, the samples were incubated at 37° C. with or without 5% CO2. All samples were visually examined for growth of the bacterium 24 hours later to determine the resveratrol concentration that inhibits growth by 50% (MIC50) and the resveratrol concentration which inhibits any visible growth (MIC100)

Escherichia coli = experiment: Inhibitory concentration on bacteria and yeast in vitro; format: cell-based
Staphylococcus aureus = experiment: as above; format: cell-based
[1] = test system: Group A Beta Streptococcus; experiment: as above; format: cell-based
Pseudomonas aeruginosa = experiment: as above; format: cell-based
Candida albicans = experiment: as above; format: cell-based
[2] = complete inhibition of bacterial growth after 24 hours
[3] = concentrations ranging from 1 μg/ml to 200 μg/ml of solution

Oc1ccc(/C=C/c2cc(O)cc(O)c2)cc1 [resveratrol, 3,5,4′-trihdyroxystilbene]
reversibility of effect on pseudorabies virus replication (pseudorabies virus): reversible
inhibition at 50 µg/mL (pseudorabies virus; Suid alphaherpesvirus 1, Vero, 24 h, read-out: inhibition of formation of infectious virus particles): > 99%
infectious pseudorabies virus particles in cultures (pseudorabies virus; continuously incubated with 50 μg/ml resveratrol, 72 hours): virtually undetectable
IC50 (Neisseria gonorrhea; Neisseria, 50% reduction in bacterial growth after 24 hours): 25 µg/mL (≈ 110 µM)
IC100 (Neisseria gonorrhea; [2]): 75 µg/mL
IC50 (Neisseria meningitidis; Neisseria meningitidis, 50% reduction in bacterial growth after 24 hours): 100 µg/mL (≈ 438 µM)
IC100 (Neisseria meningitidis; [2]): 125 µg/mL
IC50 (Escherichia coli; Escherichia coli, 50% reduction in bacterial growth after 24 hours): > 200 µg/mL
IC100 (Escherichia coli; [2]): >200 µg/mL
growth inhibition (Escherichia coli; [3]): does not inhibit the growth
IC50 (Staphylococcus aureus; Staphylococcus aureus, 50% reduction in bacterial growth after 24 hours): > 200 µg/mL
IC100 (Staphylococcus aureus; [2]): >200 µg/mL
growth inhibition (Staphylococcus aureus; [3]): does not inhibit the growth
IC50 ([1]; Streptococcus, 50% reduction in bacterial growth after 24 hours): > 200 µg/mL
IC100 [1, 2]: >200 µg/mL
growth inhibition [1, 3]: does not inhibit the growth
IC50 (Pseudomonas aeruginosa; Pseudomonas aeruginosa, 50% reduction in bacterial growth after 24 hours): > 200 µg/mL
IC100 (Pseudomonas aeruginosa; [2]): >200 µg/mL
growth inhibition (Pseudomonas aeruginosa; [3]): does not inhibit the growth
IC50 (Candida albicans; Candida albicans, 50% reduction in bacterial growth after 24 hours): > 200 µg/mL
IC100 (Candida albicans; [2]): >200 µg/mL
growth inhibition (Candida albicans; [3]): does not inhibit the growth
toxicity to cultured cells (cultured cells): non-toxic to cells
